Reference: US20110118464A1, “HALOGENATED XANTHINE DERIVATIVES AND PRECURSORS THEREOF FOR ANTI-CANCER AND ANTI-METASTASIS ACTIVITY AND PREPARING METHOD THEREOF” (Kaohsiung Medical University, priority 2009, published 2011)

Key:
[1] = tested on: Bax/Bcl-2 ratio; experiment: Bax/Bcl-2 ratio in LNCaP; type: cell-based, human; details: various concentrations, 48 hours, FIG. 16(C)
[2] = tested on: human prostate carcinoma LNCaP; experiment: MTT assay, survival rate of LNCaP; details: various concentrations, 24 and 48 hours, FIG. 7(A)
[3] = tested on: human prostate carcinoma LNCaP; experiment: Analysis of cell cycle in LNCaP; type: cell-based; details: increased concentrations, 24 and 48 hours, FIG. 8
Procedure: The counted cells (10^5 cells/ml×3 ml) are seeded in the 6-well cell culture plate for 24 hours for attaching on the bottom of the cell culture plate, then DMEM/F12 medium without fetal bovine serum (FBS) is added therein for further incubation for 24 hours. Next, the medium is replaced with DMEM/F12 supplemented with 10% FBS, and the drugs at different concentrations are respectively added therein for reacting 24 and 48 hours. The cellular inoculate is harvested, and the wells are washed with phosphate buffered saline (PBS) for twice or triplet. The cells are eluted with 0.25% trypsin-0.02% EDTA, and are collected with the original inoculate in the centrifuge tube which is centrifuged at 4° C. at 1250×g (1200 rpm) for 5 minutes. Next, the supernatant is discarded and the pellet is resuspended in 1 ml PBS and the resuspended cells are transferred to an eppendorf tube which is centrifuged once again. The supernatant is discarded, and the cells are fixed with 300 μl PBS (4° C.) and 700 μl of 99.5% ethanol (50, 50, 100, 100, 200 and 200 μl ethanol respectively and sequentially added to make the cells resuspended in the well) for 30 minutes. […] The cells are transferred into a tube, and the cells are detected using CyFlow® cytometer. The ratios of G0/G1, S and G2/M phases are determined using multicycle DNA analysis software.

[4] = tested on: AR (androgen receptor); experiment: Immunoblotting of AR in LNCaP; type: cell-based, human; details: 100 μM, 48 hours, FIG. 10(A)
Procedure: (§1) The amount of protein is determined by Bio-Rad protein reagent. Bovine serum albumin (BSA) of 0.1 mg/ml is the protein standard in the protein assay. Distilled water of 240 μl containing various known protein standards (the amounts of protein respectively are 0, 2, 4, 8, 12, 16, 20 and 30 μg) and 60 μl of Bio-Rad reagent are mixed gently in 96-well cell culture plate. The absorbance at the wavelength of 595 nm relative to the absorbance of blank test is determined using spectrophotometer (Hitachi U-200, Japan). A standard curve is evaluated from the known amounts of the protein standards and the absorbance thereof, and the amounts of the unknown proteins can be obtained according to this standard curve.
(§2) The quantified proteins are resolved by sodium dodecyl sulfate-polyacrylamide gel electrophoresis (SDS-PAGE), and the protein expression is evaluated by immunoblotting. The dilution rate of primary antibodies (i.e. anti-AR, anti-p21, anti-p27, anti-cyclin D, anti-cdk4 and anti-cdk6) is 1000 times, and that of anti-β-actin is 5000 times. The primary antibody detects the proteins for 1 hour, and the primary antibody is detected with the horseradish peroxidase (HRP)-conjugated secondary antibody for 1 hour. Finally, the detected protein are developed with enhanced chemical luminescence.

[5] = tested on: Bax; experiment: Bax expression in LNCaP; type: cell-based, human; details: various concentrations, 48 hours, FIG. 16(A)
[6] = tested on: cGMP (3′,5′-cyclic guanosine monophosphate); experiment: cGMP concentration in LNCaP cells; type: cell-based, human; details: for cGMP concentration: 48 hours, FIG. 9(A)
[7] = tested on: p27 protein; experiment: Immunoblotting of p27 in LNCaP; type: cell-based, human
Procedure: as §1, §2

[8] = tested on: human prostate carcinoma PC-3; experiment: MTT assay, survival rate of PC-3; details: various concentrations, 24 and 48 hours, FIG. 7(C)
[9] = tested on: p21; details: Liu et al., 2007; cited from earlier work
[10] = Body weight of LNCaP-xenografted rude mice; type: in vivo
[11] = tested on: human prostate carcinoma DU145; experiment: MTT assay, survival rate of DU145; details: various concentrations, 24 and 48 hours, FIG. 7(B)
[12] = tested on: cAMP (cyclic adenosine monophophate); experiment: cAMP concentration in LNCaP cells; type: cell-based, human
[13] = tested on: human tongue squamous cell carcinoma SCC-25; experiment: MTT assay, survival rate of SCC-25; details: 0.1-100 μM, 24 and 48 hours, FIG. 2
[14] = tested on: human prostate epithelial PZ-HPV-7; details: Liu et al., 2007; cited from earlier work
[15] = tested on: CDK4 protein; experiment: Immunoblotting of CDK4 in LNCaP; type: cell-based, human
Procedure: as §1, §2

[16] = tested on: Cyclin D protein; experiment: Immunoblotting of Cyclin D in LNCaP; type: cell-based, human
Procedure: as §1, §2

[17] = tested on: LNCaP prostate tumor; experiment: Tumor size in LNCaP-xenografted rude mice; type: in vivo; details: for dose at which the significant effect is obtained: data not shown; for effect on LNCaP prostate tumor compared with the control: once per day for two months
Procedure: In addition to observe the inhibition effect of the halogenated xanthine derivatives on the cancer cell lines in the cellular level, the animal experiments are further performed. LNCaP-xenografted rude mice are injected intraperitoneally with KMUP-1 ([…]) and dosed orally with KMUP-1 (200 and 400 mg/kg) respectively once per day, and a continuity for two months. […] The significant effect can be obtained (data not shown) when KMUP-1 is 100 mg/kg. […] The significant effect can be obtained (data not shown) when KMUP-1 is 200 mg/kg.

[18] = tested on: dihydrotestosterone receptor; experiment: Dihydrotestosterone receptor expression in LNCaP; type: cell-based, human; details: 100 μM, 48 hours, FIG. 10(B)
Procedure: as §1, §2

[19] = tested on: Bcl-2; experiment: Bcl-2 expression in LNCaP; type: cell-based, human; details: various concentrations, 48 hours, FIG. 16(B)
[20] = tested on: PZ-HPV-7 cells; details: Liu et al., 2007; cited from earlier work
[21] = tested on: p21 protein; experiment: Immunoblotting of p21 in LNCaP; type: cell-based, human
Procedure: as §1, §2

With `Cn1c(=O)c2c(ncn2CCN2CCN(c3ccccc3Cl)CC2)n(C)c1=O` [KMUP-1, 7-[2-[4-(2-chlorobenzene)piperazinyl]ethyl]-1,3-dimethylxanthine] the Bax/Bcl-2 ratio [1] was “increases with the increased concentration of KMUP-1”, the “survival rate relative to the control” value [2] was “decrease with the increased concentrations of KMUP-1” and the “effect on cell cycle” value [3] was “cease in G0/G1 phase and tend to sub-G1 phase”. The AR expression [4] was “completely inhibited”, the Bax expression [5] was “has no difference with the increased concentration of KMUP-1” and the cGMP concentration ([6]; KMUP-1 individually) was “increases the content of cGMP”. The cGMP concentration ([6]; together with 1 μM ODQ) was “the increased effect is not significant as KMUP-1 individually functioned on LNCaP cells”, the “p27 expression at 100 μM relative to that at 1 μM” value ([7]; 24 hours) was “twice” and the p27 expression ([7]; various concentrations, 24 and 48 hours, FIG. 12) was “would be increased”. The “survival rate relative to the control” value [8] was “decrease with the increased concentrations of KMUP-1”, the “p21 expression in PZ-HPV-7” value [9] was “increase p21 expression” and the “body weight, experimental group versus control group” value ([10]; dosed orally, eight weeks, FIG. 18(B)) was “do not have significant difference”. For the same molecule, the body weight ([10]; subcutaneous injection, FIG. 17(B)) was “can decrease the body weight”, the “survival rate relative to the control” value [11] was “decrease with the increased concentrations of KMUP-1” and the “cAMP concentration versus 100 μM KMUP-1 individually” value ([12]; 100 μM KMUP-1 plus 10 μM SQ22536, 48 hours) was “can decrease the amount of cAMP in LNCaP cells”. The cAMP concentration ([12]; KMUP-1 individually, 48 hours, FIG. 9(B)) was “increases the amount of cAMP in LNCaP cells”, the “survival rate relative to the control” value [13] was “decreases with the increased concentrations of KMUP-1” and the “growth of PZ-HPV-7” value [14] was “can inhibit the growth”. For the same molecule, the “CDK4 expression at 100 μM relative to that at 1 μM” value ([15]; 48 hours) was 50%, the CDK4 expression ([15]; various concentrations, 24 and 48 hours, FIG. 14) was “would be decreased” and the “Cyclin D expression at 100 μM relative to that at 1 μM” value ([16]; 24 hours) was “one ninth”. For the same molecule, the “Cyclin D expression at 100 μM relative to that at 1 μM” value ([16]; 48 hours) was 20%, the “Cyclin D expression” value ([16]; various concentrations, 24 and 48 hours, FIG. 13) was “would be decreased” and the “LNCaP prostate tumor size” value ([17]; injected subcutaneously, 100 and 150 mg/kg, FIG. 17(A)) was “does not enlarge anymore”. The “dose at which the significant effect is obtained” value ([17]; intraperitoneal injection) was 100 mg/kg, the “effect on LNCaP prostate tumor compared with the control” value ([17]; intraperitoneal injection) was “can significantly eliminate the LNCaP prostate tumor” and the “dose at which the significant effect is obtained” value ([17]; oral dosage) was 200 mg/kg. For the same molecule, the “effect on LNCaP prostate tumor compared with the control” value ([17]; oral dosage) was “can significantly eliminate the LNCaP prostate tumor”, the “LNCaP prostate tumor size” value ([17]; orally dosed, 400 mg/kg, FIG. 18(A)) was “does not enlarge anymore” and the dihydrotestosterone receptor expression [18] was “relatively low”. The Bcl-2 expression [19] was “decreases with the increased concentration of KMUP-1”, the “effect on cell cycle of PZ-HPV-7” value [20] was “cease of cell cycle at G0/G1 phase” and the “p21 expression at 100 μM relative to that at 1 μM” value [21] was “four times”. The p21 expression ([21]; various concentrations, 24 and 48 hours, FIG. 11) was “would be increased”.
With `O=c1onc2cnc3ccccc3n12` [ODQ, 1H-[1,2,4]oxadiazolo[4,3-a]quinoxalin-1-one, reference compound] the “antagonism of the KMUP-1 effect on cGMP” value ([6]; 1 μM ODQ with KMUP-1, 48 hours) was “antagonists to each other”.
With `Nc1ncnc2c1ncn2C1CCCO1` (stereo not drawn) [SQ22536, reference compound] the “antagonism of the KMUP-1 effect on cAMP” value ([12]; 10 μM SQ22536 with 100 μM KMUP-1, 48 hours) was “can antagonize the improved effect of KMUP-1”.
